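Results reflect a 48-hour exposure of cells in 96-well plates to compound at five concentrations. Here, GI50 denotes the concentration required for 50% inhibition of growth. TGI marks complete inhibition of growth.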
Experiments:
Test in all cases: NCI tumour cell line growth inhibition, 48 h
[1] = system: T-47D breast
[2] = system: RPMI-8226 leukemia
[3] = system: OVCAR-4 ovarian
[4] = system: KM12 colon
[5] = system: NCI-H226 lung
[6] = system: RXF 393 renal
[7] = system: SNB-75 CNS
[8] = system: SK-MEL-28 melanoma
[9] = system: NCI/ADR-RES ovarian
[10] = system: CAKI-1 renal

Row | SMILES | GI50 [1] [µM] | TGI [1] [µM] | GI50 [2] [µM] | TGI [2] [µM] | GI50 [3] [µM] | TGI [3] [µM] | GI50 [4] [µM] | TGI [4] [µM] | GI50 [5] [µM] | TGI [5] [µM] | GI50 [6] [µM] | TGI [6] [µM] | GI50 [7] [µM] | TGI [7] [µM] | GI50 [8] [µM] | TGI [8] [µM] | GI50 [9] [µM] | TGI [9] [µM] | GI50 [10] [µM] | TGI [10] [µM]
1 | Nc1ncnc2c1ccn2-c1cccc(NC(=O)c2ccc(N3CCOCC3)c(C(F)(F)F)c2)c1 | 2.66 | 7.92 | 1.39 | 4.04 | 3.57 | 12.5 | 2.69 | 10.4 | 3.51 | 14.3 | 2.05 | 5.1 | 1.31 | 9.02 | 4.76 | 23 | 2.93 | 23.4 | 2.69 | 8.73
2 | NS(=O)(=O)c1ccc(NC(=O)c2ccc3nc4ccccc4c(Nc4ccc(S(N)(=O)=O)cc4)c3c2)cc1 | – | > 100 | – | > 100 | – | > 100 | – | > 100 | – | > 100 | – | > 100 | – | > 100 | – | > 100 | – | > 100 | – | > 100
3 | C#CCn1c(=O)ccn(/C(=C/C(=O)OCC)C(=O)OCC)c1=O | – | 14.1 | – | > 24.6 | – | 17.8 | – | 33.8 | – | 39.7 | – | 3.3 | – | 46.5 | – | 21.6 | – | 13.8 | – | 3.05
4 | N=c1oc2cc(O)ccc2cc1C(=O)Nc1cccc2ccccc12 | – | 19.6 | – | > 100 | – | > 51.1 | – | > 36.2 | – | 16.6 | – | 18.7 | – | 13.9 | – | 34.4 | – | 4.43 | – | 24.8
5 | COC(=O)C1Cc2cc3c(cc2C1)CCC3 | – | > 100 | – | > 100 | – | > 100 | – | > 100 | – | > 100 | – | > 100 | – | > 100 | – | > 100 | – | > 100 | – | > 100
6 | COc1ccc2nc3cc(Cl)ccc3c(NCCCCCC(=O)NC(COc3ccc4ccc5cccnc5c4n3)COc3ccc4ccc5cccnc5c4n3)c2c1 | – | 40.1 | – | 17.3 | – | 99.8 | – | 85.5 | – | 35.1 | – | 39.3 | – | 35.4 | – | 49 | – | 73.7 | – | 95.5
7 | COc1cc(C(c2ccc3c(c2)OCO3)C2SCCCS2)cc(OC)c1OC (stereo not given) | – | > 100 | – | 7.77 | – | 75.8 | – | 26 | – | 7.11 | – | 4.47 | – | 5.83 | – | > 100 | – | 6.11 | – | 20.1
8 | CC(C)C(/C=C/c1ccc(Cl)cc1)=N\NC(=O)N/N=C(/C=C/c1ccc(Cl)cc1)C(C)C | – | > 100 | – | > 100 | – | 36 | – | > 100 | – | 54.9 | – | 76.9 | – | 39 | – | > 100 | – | 78.9 | – | 35.6
9 | c1ccc2c(c1)-c1ccccc1C2NC1=NCCO1 | – | > 100 | – | 91.9 | – | > 100 | – | 33.2 | – | 56.3 | – | > 100 | – | 49.5 | – | 55.7 | – | > 100 | – | 80.9
10 | CCCCCCCCCCCCCCCC(=O)OC1C(O)C(O)C(O)C(O)C12CO2 (stereo not given) | – | > 100 | – | > 100 | – | > 100 | – | > 100 | – | > 100 | – | > 100 | – | 93.2 | – | > 100 | – | > 100 | – | 29.8
11 | Cn1c(=O)cc(Nc2ccc(N)cc2)[nH]c1=O | – | > 100 | – | > 100 | – | > 100 | – | > 100 | – | > 100 | – | > 100 | – | > 100 | – | > 100 | – | > 100 | – | > 100
12 | c1cc(CSc2ncnc3nc[nH]c23)ccn1 | – | > 100 | – | > 100 | – | > 100 | – | > 100 | – | > 100 | – | > 100 | – | > 100 | – | > 100 | – | > 100 | – | > 100
13 | OC(Cc1cc(CC(O)(C(F)(F)F)C(F)(F)F)nc(CC(O)(C(F)(F)F)C(F)(F)F)c1)(C(F)(F)F)C(F)(F)F | – | > 10 | – | > 10 | – | > 10 | – | 2.42 | – | 7.58 | – | 4.57 | – | 7.81 | – | 5.68 | – | 6.32 | – | 2.31
14 | CN(C)CC(C)(C)CN1c2ccccc2Sc2ccccc21 | – | 29.3 | – | 35.8 | – | 26.5 | – | 25.8 | – | 33.4 | – | 13 | – | 18 | – | 26.8 | – | 26.3 | – | 24.7
15 | CN1CCN(c2n[nH]c(=O)c3c2nnn3C2CCCCC2)CC1 | – | > 100 | – | > 100 | – | > 100 | – | > 100 | – | > 100 | – | > 100 | – | > 100 | – | > 100 | – | > 100 | – | > 100
16 | O=C(/C=C/c1cccc(Br)c1)N1CCN(CCOC(c2ccccc2)c2ccccc2)CC1 | – | 82.9 | – | 36.2 | – | > 100 | – | > 100 | – | > 100 | – | > 100 | – | > 100 | – | > 100 | – | > 100 | – | > 100

Row | SMILES | GI50 [1] [µM] | TGI [1] [µM] | GI50 [2] [µM] | TGI [2] [µM] | GI50 [3] [µM] | TGI [3] [µM] | GI50 [4] [µM] | TGI [4] [µM] | GI50 [5] [µM] | TGI [5] [µM] | GI50 [6] [µM] | TGI [6] [µM] | GI50 [7] [µM] | TGI [7] [µM] | GI50 [8] [µM] | TGI [8] [µM] | GI50 [9] [µM] | TGI [9] [µM] | GI50 [10] [µM] | TGI [10] [µM]
17 | CC/C=C\C=C/C(=O)N/C=C/CCC | – | > 100 | – | > 100 | – | > 100 | – | > 100 | – | > 100 | – | > 100 | – | > 100 | – | > 100 | – | > 100 | – | > 100
18 | Cc1cccc(N=N/C(=N\NC(=O)c2cc(Cl)ccc2O)c2ccc(N(CCC#N)CCC#N)cc2C)c1 | – | 59.6 | – | 44.9 | – | 76.3 | – | 87.7 | – | > 100 | – | 97.3 | – | > 100 | – | > 100 | – | > 100 | – | > 100
19 | CC(=O)OCC1OC(O[C@H]2C=C[C@@H](C(=O)OCc3ccccc3)n3c(=O)n(-c4ccccc4)c(=O)n32)C(OC(C)=O)C(OC(C)=O)C1OC(C)=O (stereo not given in full) | – | 8.33 | – | 3.31 | – | 6.89 | – | 12.2 | – | 12.5 | – | 4.07 | – | 23.5 | – | 5.28 | – | > 100 | – | 2.98
20 | CC(C)CC1N=C(OCc2ccccc2)OC1=O (stereo not given) | – | > 100 | – | > 100 | – | > 100 | – | > 100 | – | > 100 | – | > 100 | – | > 100 | – | > 100 | – | > 100 | – | > 100
21 | COc1ccc(C=O)cc1OS(=O)(=O)C(F)(F)C(F)(F)C(F)(F)C(F)(F)F | – | > 100 | – | 54.3 | – | > 100 | – | > 74.4 | – | > 100 | – | 59.8 | – | > 90.4 | – | 97.5 | – | 58.3 | – | > 100
22 | S=C(S)NCCN1CCNCC1 | – | 60.7 | – | 47.5 | – | > 100 | – | > 100 | – | > 100 | – | 64.3 | – | > 100 | – | > 100 | – | > 100 | – | > 100
23 | C=C1CC[C@@H]2[C@](C)(COC(=O)CCC(=O)O)CCC[C@@]2(C)[C@@H]1CCC1=CC(=O)OC1 | – | > 100 | – | > 100 | – | > 100 | – | > 100 | – | > 100 | – | > 100 | – | > 100 | – | > 100 | – | > 100 | – | > 100
24 | CON[N+]([O-])=NC(C)C | – | > 100 | – | > 100 | – | > 100 | – | > 100 | – | > 100 | – | > 100 | – | > 100 | – | > 100 | – | > 100 | – | > 100
25 | CN1CCc2c(sc3ncn(Nc4ccc(F)cc4)c(=N)c23)C1 | – | > 100 | – | > 100 | – | > 100 | – | > 100 | – | > 100 | – | > 100 | – | > 100 | – | > 100 | – | > 100 | – | > 100
26 | O=C(CCCn1ccnc1[N+](=O)[O-])NCCn1cnc([N+](=O)[O-])n1 | – | > 100 | – | > 100 | – | > 100 | – | > 100 | – | > 100 | – | > 100 | – | > 100 | – | > 100 | – | > 100 | – | > 100
27 | CCN(CC)CCSc1c(C(C)=O)c(=O)n(-c2ccccc2)c(=S)n1-c1ccccc1 | – | 8.36 | – | 8.52 | – | 29 | – | 35 | – | > 60.3 | – | 3.94 | – | > 85.1 | – | 33.3 | – | 63.4 | – | 24
28 | NC1NCCC(=O)N1CCc1c[nH]c2ccccc12 (stereo not given) | – | > 100 | – | 60.3 | – | 80.7 | – | 29.8 | – | 66.3 | – | 43.5 | – | 22.9 | – | 34.9 | – | 69.4 | – | 94.4
29 | COC(=O)[C@H](Cc1ccccc1)NC(=O)N(CCNC(=O)OC(C)(C)C)c1ccccc1 | – | > 100 | – | > 100 | – | > 100 | – | > 100 | – | > 100 | – | > 100 | – | > 100 | – | > 100 | – | > 100 | – | > 100
30 | CN(C)NC1=NS(=O)(=O)c2cc3c(=O)n(C)[nH]c3cc2S1 | – | > 10 | – | > 10 | – | > 10 | – | > 10 | – | > 10 | – | > 10 | – | > 10 | – | > 10 | – | > 10 | – | > 10
31 | COc1cc(OC)c(/C=N\Nc2nc3ccccc3c(=O)n2-c2ccccc2)c(OC)c1 | – | 64.5 | – | > 100 | – | > 86.1 | – | > 31.6 | – | 44 | – | 55 | – | > 100 | – | 87.2 | – | 46.9 | – | 38.3

Reference: PubChem BioAssay (NCI)
